The source of these data is PMC9260081, “Design, Synthesis, and Evaluation of Anticonvulsant Activities of New Triazolopyrimidine Derivatives” (Frontiers in Chemistry, 2022).

In data set [1] the test system is ability to maintain equilibrium on rotating rod. The data set is described as follows: Neurotoxicity screening (rotarod test). Particulars: i.p., dosages 30, 100, 300 mg/kg. The data set is classed as in vivo. As to the method: (§1) Male Kunming mice with weights from 18 to 22 g were used in all the pharmacological experiments. The mice were housed in the standard cages with 10 each, where a controlled temperature (25°C ± 2°C) with a 12 h light/dark cycle was maintained. All animals had free access to food and water. All experiments and procedures involving animals were carried out according to the Guide for the Care and Use of Laboratory Animals (National Academies Press, Washington, D.C., United States). Approval from the local medical ethical committee was obtained before the experiment.
The rotarod test was used to evaluate the neurotoxicity of the synthesized compounds. Before the formal experiments, mice were trained to climb on a rotating rod of diameter 3.2 cm with the rotation speed of 10 rpm. Test compounds in the three doses were intraperitoneally injected into the trained mice. […] The rough neurotoxic dose was obtained in which mice cannot maintain equilibrium on the rod for at least 1 min. The quantitative neurotoxic dose (TD50) of the test compounds was measured and calculated with the same method described in the MES test.
For orientation: Falling from the rotarod earlier than controls is read as motor impairment.

The subject of data set [2] is PTZ-induced seizures. The data set is described as follows: Subcutaneous pentylenetetrazole (PTZ) test. It counts as in vivo, mice. As to conditions: Mus musculus, ip, mice, dosages 30, 100, 300 mg/kg, read-out: PTZ screening, minimum dose whereby bioactivity was demonstrated in half or more of the mice. As to the method: as §1
In the PTZ test, mice were subcutaneously administered with PTZ at the dose of 85 mg/kg. At this dose, mice can be elicited a threshold seizure characterized by an episode of clonic spasms and tonic spasms. After being treated with test compounds at doses of 300, 100, and 30 mg/kg, the mice were considered protected if a single episode of clonic spasms of more than 5 s duration was not obtained. The quantitative anticonvulsant activity (ED50) in the PTZ model was determined and calculated with the same method described in the MES test.

The subject of data set [3] is MES-induced seizures. In words: Maximal electroshock seizure (MES) test. The data set is classed as in vivo, mice. As to conditions: Mus musculus, ip, mice, dosages 30, 100, 300 mg/kg, read-out: MES screening, minimum dose whereby bioactivity was demonstrated in half or more of the mice. The method, then:
as §1
In the MES test, mice were subjected to ear stimulation using a 0.2 s 60-Hz 50-mA alternating current to elicit seizures. Tonic hind limb extension was considered as the seizure occurring, and the vanishing of tonic hind limb extension indicates the protection against the MES-induced seizures. Mice were injected intraperitoneally with test compounds at doses of 300, 100, and 30 mg/kg to evaluate their general anticonvulsant activity. Half and 4 h intervals were chosen to test the anti-MES activity. […] A series of doses of the tested compounds were injected into the mice with 10 in one group.
In general terms: The maximal electroshock test induces tonic seizures with an electrical stimulus.

The structures appear in SMILES notation. Read-outs that look alike come from different tables or passages of the source.

`Fc1ccc(-c2ccnc3ncnn23)cc1` [Compound 3b, 7-(4-Fluorophenyl)-[1,2,4]triazolo[1,5-a]pyrimidine]: the “NT screening (rotarod), minimum neurotoxic dose in half or more of the mice” value (“NT screening (rotarod)” below) is “— (A dash indicates the absence of anticonvulsant activity and neurotoxicity at the maximum dose administered (300 mg/kg))” in data set [1] (0.5 h after injection); “— (A dash indicates the absence of anticonvulsant activity and neurotoxicity at the maximum dose administered (300 mg/kg))” in data set [1] (4 h after injection). The minimal effective dose is 300 mg/kg in data set [2] (0.5 h after injection), greater than 300 mg/kg in data set [2] (4 h after injection), 300 mg/kg in data set [3] (0.5 h after injection) and greater than 300 mg/kg in data set [3] (4 h after injection).

With `Clc1ccc(-c2ccnc3ncnn23)cc1` [Compound 3d, 7-(4-Chlorophenyl)-[1,2,4]triazolo[1,5-a]pyrimidine], the “NT screening (rotarod)” value is “— (A dash indicates the absence of anticonvulsant activity and neurotoxicity at the maximum dose administered (300 mg/kg))” in data set [1] (0.5 h after injection); “— (A dash indicates the absence of anticonvulsant activity and neurotoxicity at the maximum dose administered (300 mg/kg))” in data set [1] (4 h after injection). Moreover, the minimal effective dose in data set [2] (0.5 h after injection), in data set [2] (4 h after injection), in data set [3] (0.5 h after injection) and in data set [3] (4 h after injection) was greater than 300 mg/kg each time.

On to `Clc1ccc(-c2ccnc3ncnn23)c(Cl)c1` [Compound 3e, 7-(2,4-Dichlorophenyl)-[1,2,4]triazolo[1,5-a]pyrimidine], for which the “NT screening (rotarod)” value in data set [1] (0.5 h after injection) is “— (A dash indicates the absence of anticonvulsant activity and neurotoxicity at the maximum dose administered (300 mg/kg))”; in data set [1] (4 h after injection) it was “— (A dash indicates the absence of anticonvulsant activity and neurotoxicity at the maximum dose administered (300 mg/kg))”. In addition, the minimal effective dose is 100 mg/kg in data set [2] (0.5 h after injection), greater than 300 mg/kg in data set [2] (4 h after injection), 100 mg/kg in data set [3] (0.5 h after injection) and greater than 300 mg/kg in data set [3] (4 h after injection).

With `Brc1ccc(-c2ccnc3ncnn23)cc1` [Compound 3f, 7-(4-Bromophenyl)-[1,2,4]triazolo[1,5-a]pyrimidine], the “NT screening (rotarod)” value is “— (A dash indicates the absence of anticonvulsant activity and neurotoxicity at the maximum dose administered (300 mg/kg))” in data set [1] (0.5 h after injection); “— (A dash indicates the absence of anticonvulsant activity and neurotoxicity at the maximum dose administered (300 mg/kg))” in data set [1] (4 h after injection). In addition, the minimal effective dose in data set [2] (0.5 h after injection), in data set [2] (4 h after injection), in data set [3] (0.5 h after injection) and in data set [3] (4 h after injection) was greater than 300 mg/kg each time.

Turning to `O=[N+]([O-])c1ccc(-c2ccnc3ncnn23)cc1` [Compound 3g, 7-(4-Nitrophenyl)-[1,2,4]triazolo[1,5-a]pyrimidine], the “NT screening (rotarod)” value in data set [1] (0.5 h after injection) was “— (A dash indicates the absence of anticonvulsant activity and neurotoxicity at the maximum dose administered (300 mg/kg))”; in data set [1] (4 h after injection), “— (A dash indicates the absence of anticonvulsant activity and neurotoxicity at the maximum dose administered (300 mg/kg))”. Further, the minimal effective dose in data set [2] (0.5 h after injection), in data set [2] (4 h after injection), in data set [3] (0.5 h after injection) and in data set [3] (4 h after injection) was greater than 300 mg/kg each time.

In the case of `Cc1ccc(-c2ccnc3ncnn23)cc1` [Compound 3h, 7-(P-tolyl)-[1,2,4]triazolo[1,5-a]pyrimidine], the “NT screening (rotarod)” value is “— (A dash indicates the absence of anticonvulsant activity and neurotoxicity at the maximum dose administered (300 mg/kg))” in data set [1] (0.5 h after injection); “— (A dash indicates the absence of anticonvulsant activity and neurotoxicity at the maximum dose administered (300 mg/kg))” in data set [1] (4 h after injection). The minimal effective dose is 100 mg/kg in data set [2] (0.5 h after injection), greater than 300 mg/kg in data set [2] (4 h after injection), 300 mg/kg in data set [3] (0.5 h after injection) and greater than 300 mg/kg in data set [3] (4 h after injection).

In the case of `COc1ccc(-c2ccnc3ncnn23)cc1` [Compound 3i, 7-(4-Methoxyphenyl)-[1,2,4]triazolo[1,5-a]pyrimidine], the “NT screening (rotarod)” value in data set [1] (0.5 h after injection) is “— (A dash indicates the absence of anticonvulsant activity and neurotoxicity at the maximum dose administered (300 mg/kg))”; in data set [1] (4 h after injection) it was “— (A dash indicates the absence of anticonvulsant activity and neurotoxicity at the maximum dose administered (300 mg/kg))”. For the same molecule, the minimal effective dose is 100 mg/kg in data set [2] (0.5 h after injection), greater than 300 mg/kg in data set [2] (4 h after injection), 300 mg/kg in data set [3] (0.5 h after injection) and greater than 300 mg/kg in data set [3] (4 h after injection).

For the molecule `c1ccc(-c2ccnc3ccnn23)cc1` [Compound 4a, 7-Phenylpyrazolo[1,5-a]pyrimidine], the “NT screening (rotarod)” value in data set [1] (0.5 h after injection) is “— (A dash indicates the absence of anticonvulsant activity and neurotoxicity at the maximum dose administered (300 mg/kg))”; in data set [1] (4 h after injection), “— (A dash indicates the absence of anticonvulsant activity and neurotoxicity at the maximum dose administered (300 mg/kg))”. Further, the minimal effective dose in data set [2] (0.5 h after injection), in data set [2] (4 h after injection), in data set [3] (0.5 h after injection) and in data set [3] (4 h after injection) was greater than 300 mg/kg throughout.

Consider `Fc1ccc(-c2ccnc3ccnn23)cc1` [Compound 4b, 7-(4-Fluorophenyl)pyrazolo[1,5-a]pyrimidine], for which the “NT screening (rotarod)” value in data set [1] (0.5 h after injection) was “— (A dash indicates the absence of anticonvulsant activity and neurotoxicity at the maximum dose administered (300 mg/kg))”; in data set [1] (4 h after injection), “— (A dash indicates the absence of anticonvulsant activity and neurotoxicity at the maximum dose administered (300 mg/kg))”. The minimal effective dose in data set [2] (0.5 h after injection), in data set [2] (4 h after injection), in data set [3] (0.5 h after injection) and in data set [3] (4 h after injection) was greater than 300 mg/kg in each case.

Consider `Clc1ccccc1-c1ccnc2ccnn12` [Compound 4c, 7-(2-Chlorophenyl)pyrazolo[1,5-a]pyrimidine], for which the “NT screening (rotarod)” value was “— (A dash indicates the absence of anticonvulsant activity and neurotoxicity at the maximum dose administered (300 mg/kg))” in data set [1] (0.5 h after injection); “— (A dash indicates the absence of anticonvulsant activity and neurotoxicity at the maximum dose administered (300 mg/kg))” in data set [1] (4 h after injection). The minimal effective dose in data set [2] (0.5 h after injection), in data set [2] (4 h after injection), in data set [3] (0.5 h after injection) and in data set [3] (4 h after injection) was greater than 300 mg/kg each time.

Turning to `Clc1ccc(-c2ccnc3ccnn23)cc1` [Compound 4d, 7-(4-Chlorophenyl)pyrazolo[1,5-a]pyrimidine], the “NT screening (rotarod)” value in data set [1] (0.5 h after injection) was “— (A dash indicates the absence of anticonvulsant activity and neurotoxicity at the maximum dose administered (300 mg/kg))”; in data set [1] (4 h after injection), “— (A dash indicates the absence of anticonvulsant activity and neurotoxicity at the maximum dose administered (300 mg/kg))”. Besides, the minimal effective dose in data set [2] (0.5 h after injection), in data set [2] (4 h after injection), in data set [3] (0.5 h after injection) and in data set [3] (4 h after injection) was greater than 300 mg/kg throughout.

`Clc1ccc(-c2ccnc3ccnn23)c(Cl)c1` [Compound 4e, 7-(2,4-Dichlorophenyl)pyrazolo[1,5-a]pyrimidine]: the “NT screening (rotarod)” value is “— (A dash indicates the absence of anticonvulsant activity and neurotoxicity at the maximum dose administered (300 mg/kg))” in data set [1] (0.5 h after injection); “— (A dash indicates the absence of anticonvulsant activity and neurotoxicity at the maximum dose administered (300 mg/kg))” in data set [1] (4 h after injection). Moreover, the minimal effective dose is 300 mg/kg in data set [2] (0.5 h after injection), greater than 300 mg/kg in data set [2] (4 h after injection), greater than 300 mg/kg in data set [3] (0.5 h after injection) and greater than 300 mg/kg in data set [3] (4 h after injection).
